Experimental data reported in publication PMC8452302 (CPT: Pharmacometrics & Systems Pharmacology, 2021).
Where two headings read alike, the source gives them in different places.

How the values were obtained:
OATP1B1 [1] = target: T1, OATP1B1 (Homo sapiens, UniProt Q9Y6L6); assay: In vitro OATP1B1 inhibition, transfected HEK293 cells, rosuvastatin probe; type: cell-based
T1 sequence (Q9Y6L6 1-691): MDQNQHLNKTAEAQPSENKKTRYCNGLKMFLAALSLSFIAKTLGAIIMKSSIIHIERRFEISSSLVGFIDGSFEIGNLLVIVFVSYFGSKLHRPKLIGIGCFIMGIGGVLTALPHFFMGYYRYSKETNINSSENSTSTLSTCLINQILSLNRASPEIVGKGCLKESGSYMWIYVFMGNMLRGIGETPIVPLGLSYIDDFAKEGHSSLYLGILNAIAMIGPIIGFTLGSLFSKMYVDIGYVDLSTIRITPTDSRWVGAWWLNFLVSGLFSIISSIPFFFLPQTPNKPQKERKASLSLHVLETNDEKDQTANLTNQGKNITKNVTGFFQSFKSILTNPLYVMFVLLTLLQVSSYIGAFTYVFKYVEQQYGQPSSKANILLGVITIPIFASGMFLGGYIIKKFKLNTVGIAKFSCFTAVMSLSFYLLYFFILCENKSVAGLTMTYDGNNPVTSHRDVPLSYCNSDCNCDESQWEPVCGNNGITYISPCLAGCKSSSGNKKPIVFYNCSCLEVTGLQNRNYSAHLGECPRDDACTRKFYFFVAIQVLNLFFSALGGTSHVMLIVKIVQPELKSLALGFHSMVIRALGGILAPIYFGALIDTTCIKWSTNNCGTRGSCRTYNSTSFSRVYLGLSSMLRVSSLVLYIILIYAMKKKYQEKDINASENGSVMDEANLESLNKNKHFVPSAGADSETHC

OATP1B1 [2] = target: T1, OATP1B1; assay: Static DDI risk assessment, OATP1B1 R-value; conditions: 1 + Iin,max,u/IC50; metabolite/combination additive; Imax,u for IV
[3] = cited from earlier work; for Rosuvastatin AUC ratio: observed, rosuvastatin with vs without inhibitor; for Rosuvastatin AUC ratio / Cmax ratio Observed: ref Table S1; for Cmax ratio Observed: rosuvastatin with/without inhibitor, regimens as in table row
BCRP = target: T2, BCRP (Homo sapiens, UniProt Q9UNQ0); assay: In vitro BCRP inhibition, HEK293-BCRP membrane vesicles, rosuvastatin probe; type: biochemical
T2 sequence (Q9UNQ0 1-655): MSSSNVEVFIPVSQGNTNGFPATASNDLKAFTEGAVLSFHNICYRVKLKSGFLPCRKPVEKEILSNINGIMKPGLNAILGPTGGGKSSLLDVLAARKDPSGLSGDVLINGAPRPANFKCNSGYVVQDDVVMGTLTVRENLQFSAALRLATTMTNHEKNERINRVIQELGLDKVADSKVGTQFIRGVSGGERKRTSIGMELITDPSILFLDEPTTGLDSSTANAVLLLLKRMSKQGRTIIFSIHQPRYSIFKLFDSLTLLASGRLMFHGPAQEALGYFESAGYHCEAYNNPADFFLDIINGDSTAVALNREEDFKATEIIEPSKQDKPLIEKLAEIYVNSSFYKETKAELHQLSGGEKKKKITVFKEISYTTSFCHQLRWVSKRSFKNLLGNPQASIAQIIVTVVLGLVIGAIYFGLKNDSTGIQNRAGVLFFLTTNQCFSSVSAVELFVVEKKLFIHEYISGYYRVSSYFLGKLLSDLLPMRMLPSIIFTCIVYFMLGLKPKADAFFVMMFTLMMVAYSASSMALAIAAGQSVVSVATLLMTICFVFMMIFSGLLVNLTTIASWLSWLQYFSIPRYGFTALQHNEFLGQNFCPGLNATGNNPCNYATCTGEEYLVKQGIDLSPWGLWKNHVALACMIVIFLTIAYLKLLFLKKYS

OATP1B3 [4] = target: T3, OATP1B3 (Homo sapiens, UniProt Q9NPD5); assay: In vitro OATP1B3 inhibition, transfected HEK293 cells, rosuvastatin probe; type: cell-based
T3 sequence (Q9NPD5 1-702): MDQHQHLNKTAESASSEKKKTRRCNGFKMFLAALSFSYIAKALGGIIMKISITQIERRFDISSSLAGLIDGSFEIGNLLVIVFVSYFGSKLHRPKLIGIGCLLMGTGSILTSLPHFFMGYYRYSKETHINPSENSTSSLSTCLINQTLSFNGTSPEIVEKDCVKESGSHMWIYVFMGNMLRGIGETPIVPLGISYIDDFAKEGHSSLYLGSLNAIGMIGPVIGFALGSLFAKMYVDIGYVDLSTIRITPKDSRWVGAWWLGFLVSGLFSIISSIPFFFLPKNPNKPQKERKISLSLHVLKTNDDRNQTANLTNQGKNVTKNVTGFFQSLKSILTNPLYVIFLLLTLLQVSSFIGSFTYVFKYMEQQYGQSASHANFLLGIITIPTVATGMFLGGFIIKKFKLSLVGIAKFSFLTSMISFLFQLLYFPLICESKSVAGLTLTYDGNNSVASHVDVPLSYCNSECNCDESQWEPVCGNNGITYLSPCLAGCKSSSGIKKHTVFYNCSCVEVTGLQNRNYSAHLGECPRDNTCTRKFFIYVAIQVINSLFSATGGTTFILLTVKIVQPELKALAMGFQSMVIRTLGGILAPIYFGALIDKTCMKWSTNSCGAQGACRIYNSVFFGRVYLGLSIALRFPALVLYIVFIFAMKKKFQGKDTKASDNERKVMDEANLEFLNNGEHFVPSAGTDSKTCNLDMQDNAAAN

OATP1B3 [5] = target: T3, OATP1B3; assay: Static DDI risk assessment, OATP1B3 R-value; conditions: 1 + Iin,max,u/IC50; metabolite/combination additive; Imax,u for IV
[6] = read-out: BCRP IC50, membrane vesicles, rosuvastatin 0.2 µM probe

SMILES | IC50 (OATP1B1 [1]) [µM] | 1B1 R-Value (OATP1B1 [2]) | Rosuvastatin AUC ratio [3] | IC50 (BCRP) [µM] | IC50 (OATP1B3 [4]) [µM] | Cmax ratio Observed [3] | 1B3 R-Value (OATP1B3 [5]) | IC50 (BCRP; [6]) [µM] | Rosuvastatin AUC ratio ([3]; listed as darolutamide) | IC50 at 1 min (OATP1B3 [4]; human, HEK293 cells transfected with OATP1B3, pH 7.4, probe rosuvastatin 0.3 µM) [µM] | reduction of renal clearance of rosuvastatin ([3]; probenecid 1000 mg) [%]
O=c1ccc2ccc(OCCCCN3CCN(c4cccc5sccc45)CC3)cc2[nH]1 [Brexpiprazole] | 13.2 | 1.00 | 1.12 | 100 |  |  |  |  |  |  | 
CNC(=O)c1ccc(-c2cnc3ncc(Cc4ccc5ncccc5c4)n3n2)cc1F [Capmatinib] | 3.3 | 1.35 | 2.03 | 0.69 | 14.5 | 3.05 | 1.08 |  |  |  | 
CC[C@H]1OC(=O)[C@H](C)[C@@H](O[C@H]2C[C@@](C)(OC)[C@@H](O)[C@H](C)O2)[C@H](C)[C@@H](O[C@@H]2O[C@H](C)C[C@H](N(C)C)[C@H]2O)[C@](C)(OC)C[C@@H](C)C(=O)[C@H](C)[C@@H](O)[C@]1(C)O [Clarithromcyin] |  | 1.99 | 1.58 |  |  |  | 1.35 | 411 |  |  | 
COC(=O)N[C@H](C(=O)N1CCC[C@H]1c1nc(-c2ccc(-c3ccc(-c4c[nH]c([C@@H]5CCCN5C(=O)[C@@H](NC(=O)OC)C(C)C)n4)cc3)cc2)c[nH]1)C(C)C [Daclatasvir] |  | 1.18 | 1.47 | 1.1 |  |  | 1.08 |  |  |  | 
CC(O)c1cc(C(=O)N[C@@H](C)Cn2ccc(-c3ccc(C#N)c(Cl)c3)n2)[nH]n1 (stereo partly drawn) [Darolutamide] |  | 1.09 | 5.50 | 0.09 | 20.2 | 5.50 | 1.02 |  | > 5 |  | 
COC(=O)N[C@H](C(=O)N1CCC[C@H]1c1nc(-c2ccc3c(c2)O[C@@H](c2ccccc2)n2c-3cc3cc(-c4c[nH]c([C@@H]5CCCN5C(=O)[C@@H](NC(=O)OC)C(C)C)n4)ccc32)c[nH]1)C(C)C [Elbasvir] | 7.8 | 1.00 | 1.42 | 0.14 | > 10 |  | 1.00 |  |  |  | 
CC1=NN(c2ccc(C)c(C)c2)C(=O)/C1=N\Nc1cccc(-c2cccc(C(=O)O)c2)c1O [Eltrombopag] | 27.3 | 1.01 | 1.55 | 0.95 | 3 |  | 1.10 |  |  |  | 
C[C@](O)(COc1ccc(C#N)cc1)C(=O)Nc1ccc(C#N)c(C(F)(F)F)c1 [Enobosarm] |  | 1.00 | 1.18 | 1.1 |  |  |  |  |  |  | 
COc1cc(Nc2ncc(F)c(Nc3ccc4c(n3)N(COP(=O)(O)O)C(=O)C(C)(C)O4)n2)cc(OC)c1OC [Fostamatinib] | 0.89 |  | 1.95 | 2 | 7.4 | 1.90 |  |  |  |  | 
CC(C)c1noc(N2CCC(COc3ccc(-c4ccc(S(C)(=O)=O)cc4)nc3)CC2)n1 [GSK1292263] | > 30 | 1.03 | 1.39 | 3 |  |  |  |  |  |  | 
Cc1ccc(C)c(OCCCC(C)(C)C(=O)O)c1 [Gemfibrozil] |  | 2.60 | 1.88 | 295 | 10 | 2.21 | 1.15 |  |  |  | 
CC(O)C(C)n1ncn(-c2ccc(N3CCN(c4ccc(OCC5COC(Cn6cncn6)(c6ccc(Cl)cc6Cl)O5)cc4)CC3)cc2)c1=O (stereo not drawn) [Hydroxy‐itraconazole] | 1.4 |  |  |  |  |  |  |  |  |  | 
CC[C@H](Nc1ncnc2[nH]cnc12)c1nc2cccc(F)c2c(=O)n1-c1ccccc1 [Idelalisib] | 3.13 | 1.19 |  | 54.4 | 7 |  |  |  |  |  | 
CCC(C)n1ncn(-c2ccc(N3CCN(c4ccc(OCC5COC(Cn6cncn6)(c6ccc(Cl)cc6Cl)O5)cc4)CC3)cc2)c1=O (stereo not drawn) [Itraconazole] | 12.9 | 1.01 | 1.26 | 3.2 | > 20 | 1.38 | 1.00 |  |  |  | 
CC(=O)c1cc(C(=O)N[C@@H](C)Cn2ccc(-c3ccc(C#N)c(Cl)c3)n2)[nH]n1 [Keto‐darolutamide] |  |  |  |  |  |  |  | 0.56 |  |  | 
COc1ccnc(C[S+]([O-])c2nc3ccc(OC(F)F)cc3[nH]2)c1OC (stereo not drawn) [Pantoprazole] | > 500 | 1.01 |  | 6.1 |  |  |  |  |  | > 500 | 
O=C(O)C[C@H]1CC[C@H](c2ccc(-c3ccc(Nc4ccc(C(F)(F)F)nc4)cn3)cc2)CC1 [Pradigastat] | 1.48 | 1.03 | 0.96 | 0.71 |  |  | 1.01 |  |  |  | 
CCCN(CCC)S(=O)(=O)c1ccc(C(=O)O)cc1 [Probenecid] |  | 1.99 |  | 216 | 339 |  | 1.11 |  |  |  | ~80
COc1cc(Nc2ncc(F)c(Nc3ccc4c(n3)NC(=O)C(C)(C)O4)n2)cc(OC)c1OC [R406] |  |  |  |  |  |  |  | 0.065 |  |  | 
CO[C@H]1/C=C/O[C@@]2(C)Oc3c(C)c(O)c4c(O)c(c(/C=N/N5CCN(C)CC5)c(O)c4c3C2=O)NC(=O)/C(C)=C\C=C\[C@H](C)[C@H](O)[C@@H](C)[C@@H](O)[C@@H](C)[C@H](OC(C)=O)[C@@H]1C [Rifampicin] | 0.29 | 10.20 |  |  | 0.73 |  | 4.65 |  |  |  | 
CCCc1nc2c(C)cc(-c3nc4ccccc4n3C)cc2n1Cc1ccc(-c2ccccc2C(=O)O)cc1 [Telmisartan] | 3.06 | 1.01 | 1.20 | 0.61 |  |  | 1.03 |  |  |  | 
COC[C@H]1C[C@@H](c2ncc(-c3ccc4c(c3)COc3cc5c(ccc6nc([C@@H]7CC[C@H](C)N7C(=O)[C@@H](NC(=O)OC)C(C)C)[nH]c65)cc3-4)[nH]2)N(C(=O)[C@H](NC(=O)OC)c2ccccc2)C1 [Velpatasvir] |  | 1.00 | 2.59 | 0.09 |  | 2.50 | 1.02 |  |  |  | 
CC(C)(C)c1ccc(S(=O)(=O)Nc2ccc(Cl)cc2C(=O)c2cc[n+]([O-])cc2)cc1 [Vercirnon] | 2.1 | 2.02 | 0.99 | 3.3 |  |  |  |  |  |  | 
